Assays:
[1] = target: T1, CYP2C8 (Homo sapiens, UniProt P10632); assay: Reversible CYP inhibition in pooled human liver microsomes; format: in vitro ADME
T1 sequence (P10632 1-490): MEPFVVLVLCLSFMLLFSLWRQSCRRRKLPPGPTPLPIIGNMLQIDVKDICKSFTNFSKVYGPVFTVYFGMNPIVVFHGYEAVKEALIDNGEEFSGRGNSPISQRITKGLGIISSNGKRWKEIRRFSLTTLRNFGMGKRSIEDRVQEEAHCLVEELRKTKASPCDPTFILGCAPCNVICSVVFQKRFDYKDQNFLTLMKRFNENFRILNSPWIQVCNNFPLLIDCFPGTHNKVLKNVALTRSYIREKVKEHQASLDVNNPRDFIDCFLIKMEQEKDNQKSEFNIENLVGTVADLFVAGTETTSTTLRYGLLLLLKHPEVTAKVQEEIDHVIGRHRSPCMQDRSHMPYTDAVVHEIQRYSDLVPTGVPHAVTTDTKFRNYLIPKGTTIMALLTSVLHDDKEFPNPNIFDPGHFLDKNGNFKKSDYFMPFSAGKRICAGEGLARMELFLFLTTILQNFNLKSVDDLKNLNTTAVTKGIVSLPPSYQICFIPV

[2] = target: T2, OAT3 (Homo sapiens, UniProt Q8TCC7); assay: Islatravir uptake as substrate, MDCKII vs MDCKII-OAT3 cells; format: in vitro ADME
T2 construct: expressed in transfected cells; host or cells: MDCKII
T2 sequence (Q8TCC7 1-542): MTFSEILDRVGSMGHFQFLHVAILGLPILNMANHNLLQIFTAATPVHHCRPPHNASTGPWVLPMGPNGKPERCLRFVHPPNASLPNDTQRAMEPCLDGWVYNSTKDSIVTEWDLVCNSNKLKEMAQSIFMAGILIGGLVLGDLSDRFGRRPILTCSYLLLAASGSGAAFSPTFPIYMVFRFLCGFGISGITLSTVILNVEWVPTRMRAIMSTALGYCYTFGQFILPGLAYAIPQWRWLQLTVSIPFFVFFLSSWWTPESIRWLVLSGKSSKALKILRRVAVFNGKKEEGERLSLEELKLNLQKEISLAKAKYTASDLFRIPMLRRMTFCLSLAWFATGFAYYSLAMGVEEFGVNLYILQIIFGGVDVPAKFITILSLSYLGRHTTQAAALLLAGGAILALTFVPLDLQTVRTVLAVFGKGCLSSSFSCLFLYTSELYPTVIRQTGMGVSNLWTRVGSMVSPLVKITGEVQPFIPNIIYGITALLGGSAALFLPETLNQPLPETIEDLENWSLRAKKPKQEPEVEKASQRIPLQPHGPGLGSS

[3] = target: T3, MRP3 (Homo sapiens, UniProt O15438); assay: Inhibition of ATP-dependent probe uptake in Sf9 membrane vesicles; format: in vitro ADME; settings: MRP3-mediated ATP-dependent uptake of E217βG
T3 construct: purchased Thermo Fisher Scientific; host or cells: Sf9

[4] = Distribution between red blood cells and plasma in human blood; format: in vitro ADME
[5] = target: T4, OATP1B1 (Homo sapiens, UniProt Q9Y6L6); assay: Inhibition of transporter-mediated probe uptake in HEK293-OATP1B1 cells; format: in vitro ADME
T4 construct: host or cells: HEK293
T4 sequence (Q9Y6L6 1-691): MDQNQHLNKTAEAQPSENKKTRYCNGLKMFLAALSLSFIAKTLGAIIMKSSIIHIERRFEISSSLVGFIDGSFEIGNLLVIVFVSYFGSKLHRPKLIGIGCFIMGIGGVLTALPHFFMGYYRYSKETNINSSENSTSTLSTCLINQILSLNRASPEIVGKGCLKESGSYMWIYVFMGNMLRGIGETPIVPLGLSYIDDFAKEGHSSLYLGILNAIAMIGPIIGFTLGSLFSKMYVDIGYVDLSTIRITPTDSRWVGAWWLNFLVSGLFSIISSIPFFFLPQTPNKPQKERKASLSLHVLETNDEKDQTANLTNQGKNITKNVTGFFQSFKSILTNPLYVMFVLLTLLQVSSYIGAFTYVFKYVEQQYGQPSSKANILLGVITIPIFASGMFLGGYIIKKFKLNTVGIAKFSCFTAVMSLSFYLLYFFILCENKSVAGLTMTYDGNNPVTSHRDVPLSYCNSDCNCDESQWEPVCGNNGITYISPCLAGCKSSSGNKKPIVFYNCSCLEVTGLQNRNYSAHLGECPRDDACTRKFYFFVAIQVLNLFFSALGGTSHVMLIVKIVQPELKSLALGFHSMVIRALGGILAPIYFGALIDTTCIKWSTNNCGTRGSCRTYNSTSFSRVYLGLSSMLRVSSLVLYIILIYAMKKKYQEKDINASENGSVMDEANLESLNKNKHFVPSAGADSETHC

[6] = tested on: CYP1A2; assay: CYP induction in cryopreserved human hepatocytes; settings: for mRNA Mean Fold Change ± SD CYP1A2: 48 h, n = 3 donors, vs DMSO vehicle
[7] = target: T5, CYP2B6 (Homo sapiens, UniProt P20813); assay: Reversible CYP inhibition in pooled human liver microsomes; format: in vitro ADME
T5 sequence (P20813 1-491): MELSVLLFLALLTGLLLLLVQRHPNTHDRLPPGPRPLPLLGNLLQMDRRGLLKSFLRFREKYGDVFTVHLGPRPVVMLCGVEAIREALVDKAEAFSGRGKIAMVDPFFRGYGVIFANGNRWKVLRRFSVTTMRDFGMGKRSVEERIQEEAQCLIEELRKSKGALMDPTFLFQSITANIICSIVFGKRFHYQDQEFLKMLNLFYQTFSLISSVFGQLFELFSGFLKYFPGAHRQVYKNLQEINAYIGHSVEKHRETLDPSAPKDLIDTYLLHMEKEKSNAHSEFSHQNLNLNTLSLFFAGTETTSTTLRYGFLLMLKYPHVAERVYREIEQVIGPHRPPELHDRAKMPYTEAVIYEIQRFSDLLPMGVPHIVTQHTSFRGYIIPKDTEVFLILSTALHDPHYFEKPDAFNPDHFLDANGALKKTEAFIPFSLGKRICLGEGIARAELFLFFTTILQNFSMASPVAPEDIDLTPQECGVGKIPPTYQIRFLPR

T3 sequence (O15438 whole entry): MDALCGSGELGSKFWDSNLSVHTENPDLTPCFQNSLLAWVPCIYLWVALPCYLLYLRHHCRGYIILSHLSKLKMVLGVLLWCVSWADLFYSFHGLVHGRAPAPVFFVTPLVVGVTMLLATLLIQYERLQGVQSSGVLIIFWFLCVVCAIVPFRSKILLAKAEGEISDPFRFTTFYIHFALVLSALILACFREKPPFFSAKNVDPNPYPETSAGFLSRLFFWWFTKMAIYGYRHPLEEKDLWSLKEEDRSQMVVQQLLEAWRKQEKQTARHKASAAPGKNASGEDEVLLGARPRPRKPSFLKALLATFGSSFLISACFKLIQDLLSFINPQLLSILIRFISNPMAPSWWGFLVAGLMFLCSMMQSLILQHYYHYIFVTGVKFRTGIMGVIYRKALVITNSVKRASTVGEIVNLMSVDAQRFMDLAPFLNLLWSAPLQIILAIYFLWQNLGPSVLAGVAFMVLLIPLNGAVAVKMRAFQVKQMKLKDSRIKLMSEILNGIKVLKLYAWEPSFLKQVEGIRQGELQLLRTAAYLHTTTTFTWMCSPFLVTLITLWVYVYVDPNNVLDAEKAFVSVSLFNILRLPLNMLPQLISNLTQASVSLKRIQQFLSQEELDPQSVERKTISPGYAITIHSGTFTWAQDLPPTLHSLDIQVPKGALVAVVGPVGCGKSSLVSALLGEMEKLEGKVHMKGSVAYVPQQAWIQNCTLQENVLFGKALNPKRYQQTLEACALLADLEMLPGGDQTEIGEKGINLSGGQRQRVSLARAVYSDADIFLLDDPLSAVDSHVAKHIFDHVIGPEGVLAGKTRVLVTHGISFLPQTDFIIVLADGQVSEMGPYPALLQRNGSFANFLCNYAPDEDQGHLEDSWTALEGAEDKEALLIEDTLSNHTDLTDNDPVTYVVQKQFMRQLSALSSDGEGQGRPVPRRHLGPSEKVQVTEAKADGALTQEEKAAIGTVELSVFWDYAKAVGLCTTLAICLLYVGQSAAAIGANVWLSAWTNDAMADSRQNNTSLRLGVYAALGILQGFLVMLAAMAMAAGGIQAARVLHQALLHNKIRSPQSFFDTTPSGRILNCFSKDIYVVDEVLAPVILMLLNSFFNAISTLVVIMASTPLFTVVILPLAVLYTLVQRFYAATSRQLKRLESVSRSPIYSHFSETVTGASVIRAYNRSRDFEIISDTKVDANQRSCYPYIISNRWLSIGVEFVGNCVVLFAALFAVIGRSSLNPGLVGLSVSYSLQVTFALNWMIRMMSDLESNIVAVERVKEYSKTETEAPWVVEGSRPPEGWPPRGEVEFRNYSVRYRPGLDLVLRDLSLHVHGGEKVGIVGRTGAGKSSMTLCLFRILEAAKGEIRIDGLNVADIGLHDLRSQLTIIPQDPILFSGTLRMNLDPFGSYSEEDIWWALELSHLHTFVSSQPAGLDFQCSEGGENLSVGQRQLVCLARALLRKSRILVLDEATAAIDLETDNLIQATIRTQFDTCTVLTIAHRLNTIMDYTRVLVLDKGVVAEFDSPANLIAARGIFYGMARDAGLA

C#C[C@]1(CO)O[C@@H](n2cnc3c(N)nc(F)nc32)C[C@@H]1O [Islatravir, 4′-Ethynyl-2-fluoro-2′-deoxyadenosine]
DDI Potential ([1]; CYP2C8 reversible inhibition, FDA, EMA, PMDA guidance): Low risk | Maximum Unbound Plasma Concentration (Imax,u) to Ki,u Ratio ([1]; CYP2C8 reversible, 60 mg, Cmax 1.01 µM, fu,p 0.96, Ki,u = IC50/2): <0.019 µM | IC50 ([1]; reversible, CYP2C8 amodiaquine N-deethylation, read-out: Islatravir IC50): > 100 µM | Islatravir Uptake Transporter-Expressing Cells ([2]; MDCKII-OAT3, 1 µM [3H]islatravir, 5 min, mean ± SD, n = 3): 0.85 ± 0.06 pmole/10^6 Cells | Fold-Difference ([2]; OAT3, uptake into transporter-expressing cells to control cells, 5 min): 1.23 | Islatravir Uptake Control Cells ([2]; OAT3 row, MDCKII control cells, 1 µM [3H]islatravir, 5 min, mean ± SD, n = 3): 0.69 ± 0.07 pmole/10^6 Cells | Conclusions ([2]; OAT3 substrate assessment): Non-substrate | IC50 [3]: > 100 µM | concentration dependence of blood:plasma partitioning ([4]; 0.01 to 10 µM): did not exhibit concentration-dependent partitioning | blood plasma ratio at 60 min, 0.1 µM ([4]; whole blood, human blood, 0.1 µM, ± standard error, read-out: mean blood:plasma concentration ratio): 1.3 | IC50 ([5]; OATP1B1-mediated uptake of pitavastatin, read-out: Islatravir IC50): > 300 µM | Maximum Unbound Inlet Concentration (Iin,max,u) to IC50 Ratio ([5]; OATP1B1, 60 mg dose): <0.035 | DDI Potential ([5]; OATP1B1 inhibition, FDA, EMA, PMDA guidance): Low risk | mRNA Mean Fold Change ± SD CYP1A2 ([6]; 0.1 µM): 0.4 ± 0.2 | mRNA Mean Fold Change ± SD CYP1A2 ([6]; 0.5 µM): 0.4 ± 0.2 | mRNA Mean Fold Change ± SD CYP1A2 ([6]; 1 µM): 0.5 ± 0.3 | mRNA Mean Fold Change ± SD CYP1A2 ([6]; 5 µM): 0.4 ± 0.3 | mRNA Mean Fold Change ± SD CYP1A2 ([6]; 10 µM): 0.5 ± 0.4 | mRNA Mean Fold Change ± SD CYP1A2 ([6]; 20 µM): 0.2 ± 0.2 | mRNA response relative to positive control ([6]; CYP1A2, each tested concentration 0.1-20 µM): less than 20% | enzyme activity, fold of solvent control ([6]; CYP1A2 phenacetin O-deethylation, all islatravir concentrations): ≤ 1.1 fold | DDI Potential ([7]; CYP2B6 reversible inhibition, FDA, EMA, PMDA guidance): Low risk | Maximum Unbound Plasma Concentration (Imax,u) to Ki,u Ratio ([7]; CYP2B6 reversible, 60 mg, Cmax 1.01 µM, fu,p 0.96, Ki,u = IC50/2): <0.019 µM | IC50 ([7]; reversible, CYP2B6 bupropion hydroxylation, read-out: Islatravir IC50): > 100 µM

From paper PMC8402619 (Viruses, 2021)
